Reference: patent US9724312B2, “Agent for the prevention, improvement or treatment of retinal disease” (ROHTO PHARMACEUTICAL CO., LTD., priority 2012, dated 2017)

Tested on: PC12
Assay: Protective effect against ischemic cell death induced by hypoxia and low glucose (Cell Titer-Glo cell viability)
Assay type: cell-based, rat
Settings: 30 μM, 2 h pre-incubation, then low glucose/zero percent O2 8 h, FIG. 1, n=10, Tukey-Kramer
Source text: The progress of visual impairment in glaucoma is associated with retinal ganglion cell (RGC) death due to blood flow failure occurring near the optic nerve (Folia Pharmacol. Jpn. 128, 255-258 (2006)). With the use of PC12, which is a typical neural cell line established from rat adrenal […] pheochromocytoma and used also as a model cell for the functional evaluation of RGC (J Neurosci Res. 2000 May 15; 60(4): 495-503), the cytoprotective effect of GGA against ischemic cell death induced by hypoxia and low glucose was evaluated.
Test samples were prepared as follows. The test substances were four types of GGAs that contain the all-trans form and the 5Z-mono-cis form at a weight ratio of 10:0, 8:2, 6:4, and 0:10, respectively. […]
After 8 hours of incubation, 100 μL of an equivalent mixture of a cell viability detection reagent Cell Titer-Glo (Promega) and PBS was added to each well and the luminescence produced by the reaction with ATP in living cells was measured with a luminometer (GloMax; Promega). The cell viability was calculated from the measured luminescence by the following formula and the cytoprotective effect of GGA against oxidative stress by hydrogen peroxide was examined. Cell viability(%)=100×[(luminescence of base- or GGA-treated group)/(luminescence of non-treated group)]

## CC(=O)CC/C=C(\C)CC/C=C(\C)CC/C=C(\C)CCC=C(C)C [all-trans form, (5E,9E,13E)-6,10,14,18-tetramethyl-5,9,13,17-nonadecatetrae n-2-one]
  cytoprotective effect compared with GGA 6:4: significantly higher cytoprotective effects
